According to patent publication US20240218022A1, “ANTI-VISTA MACROCYCLIC PEPTIDES AND COMPOSITIONS” (BRISTOL-MYERS SQUIBB COMPANY, priority 2022, published 2024):
Where two headings read alike, the source gives them in different places. Starred links: 1 amine or outer side, 2 acyl side, 3 side chain; linkers in the order of their positions; H or OH if unused. Positions of bridges follow the written chain, without caps; N, C: chain ends. Non-standard residues stand in square brackets, D forms with d. Residues, ends and D or L forms follow the SMILES beside them. ξ: configuration not given here. Phe(4-CONH2) = NC(=O)c1ccc(C[C@H](N)C(=O)O)cc1; Phe(3-Me) = Cc1cccc(C[C@H](N)C(=O)O)c1; γGlu = O=C(O)[C@H](CCC(=O)[*:2])N[*:1]; 2Nal = N[C@@H](Cc1ccc2ccccc2c1)C(=O)O; βAsp = O=C(O)[C@H](CC(=O)[*:2])N[*:1]; NMeL = CN[C@@H](CC(C)C)C(=O)O; Ahp(2) = CCCCC[C@H](N)C(=O)O; NMeNle = CCCC[C@H](NC)C(=O)O; Tle = CC(C)(C)[C@H](N)C(=O)O; NMeS = CN[C@@H](CO)C(=O)O; NHexGly = CCCCCCNCC(=O)O; Nle = CCCC[C@H](N)C(=O)O; Orn = NCCC[C@H](N)C(=O)O; Aun = NCCCCCCCCCCC(=O)O; Dab = NCC[C@H](N)C(=O)O; AEEA = NCCOCCOCC(=O)O; ξS = NC(CO)C(=O)O

Target: T1, mouse VISTA (mVISTA) (Mus musculus, UniProt Q9D659)
T1 construct: expressed in transfected cells; host or cells: Human embryonic kidney 293T cells
T1 sequence (Q9D659 33-308): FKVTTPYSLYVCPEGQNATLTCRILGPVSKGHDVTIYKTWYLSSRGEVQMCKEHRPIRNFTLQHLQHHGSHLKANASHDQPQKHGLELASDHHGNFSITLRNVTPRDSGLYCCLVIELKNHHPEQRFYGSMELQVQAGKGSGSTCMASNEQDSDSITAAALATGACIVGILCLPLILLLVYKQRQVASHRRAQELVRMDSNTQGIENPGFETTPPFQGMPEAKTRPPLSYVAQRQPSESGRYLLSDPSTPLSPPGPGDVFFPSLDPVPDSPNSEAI
Test: Cell-Based Binding High-Content Assay For mVISTA (HC CBA mVISTA)
Summary of the method: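 293T cells expressing mouse VISTA, with compounds added either after seeding ("no wash") or before seeding and then washed out after 1 h. Biotinylated peptide 2 nM for 30 min at room temperature, then detection with Alexa 647–streptavidin. After fixation with Hoechst stain, plates were high-content imaged; IC50 from four-parameter logistic fit.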

[1] = cell-based binding high-content assay, mVISTA, read-out: HC CBA miPr ISTA IC50
[2] = cell-based binding high-content assay, mVISTA, the 16th table, read-out: HC CBA mVISTA IC50
[3] = the 19th table, scaffold drawing 22, read-out: HC CBA mVISTA IC50

SMILES: CCCCCCN1CC(=O)N[C@@H](Cc2ccc(O)cc2)C(=O)N[C@@H](CC(C)C)C(=O)N[C@@H](CC(N)=O)C(=O)N[C@@H](CCCNC(=N)N)C(=O)N(C)[C@@H](CCCC)C(=O)N[C@@H](CCCCC)C(=O)N2CCC[C@H]2C(=O)N[C@@H](C(C)(C)C)C(=O)N[C@@H](CO)C(=O)N[C@H](C(=O)N[C@@H](CCC(=O)N[C@@H](CCN)C(=O)NCCCCCCCCCCC(=O)O)C(=O)O)CSCC(=O)N[C@@H](Cc2ccccc2)C(=O)N[C@@H](Cc2ccc(O)cc2)C(=O)N[C@@H](CC(=O)O)C1=O [Example 2323] ({CH2CO}-FYD[NHexGly]YLNR[NMeNle][Ahp(2)]P[Tle]SC[γGlu][Dab][Aun]-OH; thioether N-14)
- IC50 (cell-based binding high-content assay, read-out: HC CBA mVISTA IC50): 33.9 nM

SMILES: CCCCCCN1CC(=O)N[C@@H](Cc2ccc(O)cc2)C(=O)N[C@@H](CC(C)C)C(=O)N[C@@H](CC(N)=O)C(=O)N[C@@H](CCCNC(=N)N)C(=O)N(C)[C@@H](CO)C(=O)N[C@@H](CCCCC)C(=O)N2CCC[C@H]2C(=O)N[C@@H](C(C)(C)C)C(=O)N[C@@H](CC(=O)O)C(=O)N[C@H](C(=O)N[C@@H](CC(=O)NCCOCCOCC(=O)N[C@@H](CC(=O)O)C(=O)NCCOCCOCC(=O)NCCCCCCCCCCC(=O)O)C(=O)O)CSCC(=O)N[C@@H](Cc2ccccc2)C(=O)N[C@@H](Cc2ccc(O)cc2)C(=O)N[C@@H](CC(=O)O)C1=O [compound 2035] ({CH2CO}-FYD[NHexGly]YLNR[NMeS][Ahp(2)]P[Tle]DC[βAsp][AEEA]D[AEEA][Aun]-OH; thioether N-14)
- IC50 [1]: 37.1 nM

SMILES: CCCCCCN1CC(=O)N[C@@H](Cc2ccc(O)cc2)C(=O)N[C@@H](CCCC)C(=O)N[C@@H](CC(=O)O)C(=O)N[C@@H](CCCNC(=N)N)C(=O)N[C@@H](CC(C)C)C(=O)N[C@@H](CCCCC)C(=O)N2CCC[C@H]2C(=O)N[C@@H](C(C)C)C(=O)N[C@@H](CC(=O)O)C(=O)N[C@H](C(=O)N[C@@H](CC(=O)O)C(N)=O)CSCC(=O)N[C@@H](Cc2ccc3ccccc3c2)C(=O)N[C@@H](Cc2ccc(O)cc2)C(=O)N[C@@H](CC(=O)O)C1=O [Ex 1267] ({CH2CO}-[2Nal]YD[NHexGly]Y[Nle]DRL[Ahp(2)]PVDCD-NH2; thioether N-14)
- IC50 [2]: 15.3 nM

SMILES: CCCCCCN1CC(=O)N[C@@H](Cc2ccc(O)cc2)C(=O)N[C@@H](CCCC)C(=O)N[C@@H](CC(N)=O)C(=O)N[C@@H](CCCNC(=N)N)C(=O)N(C)[C@@H](CCCC)C(=O)N[C@@H](CCCCC)C(=O)N2CCC[C@H]2C(=O)N[C@@H](C(C)(C)C)C(=O)N[C@@H](CO)C(=O)N[C@H](C(=O)NCCOCCOCC(=O)N[C@@H](CCC(=O)NCCOCCOCC(=O)NCCCCCCCCCCC(=O)O)C(=O)O)CSCC(=O)N[C@@H](Cc2ccc(C(N)=O)cc2)C(=O)N[C@@H](Cc2ccc(O)cc2)C(=O)N[C@@H](CC(=O)O)C1=O [compound 2259] ({CH2CO}-[Phe(4-CONH2)]YD[NHexGly]Y[Nle]NR[NMeNle][Ahp(2)]P[Tle]SC[AEEA][γGlu][AEEA][Aun]-OH; thioether N-14)
- IC50 (read-out: HC CBA mVISTA IC50): 38.1 nM

SMILES: CCCCCCN1CC(=O)N[C@@H](Cc2ccc(O)cc2)C(=O)N[C@@H](CCCCC)C(=O)N[C@@H](CC(N)=O)C(=O)N[C@@H](CCCNC(=N)N)C(=O)N(C)[C@@H](CCCC)C(=O)N[C@@H](CCCCC)C(=O)N2CCC[C@H]2C(=O)N[C@@H](C(C)C)C(=O)N[C@@H](CC(=O)O)C(=O)N[C@H](C(=O)NCC(=O)O)CSCC(=O)N[C@@H](Cc2cccc(C)c2)C(=O)N[C@@H](Cc2c[nH]c3ccccc23)C(=O)N[C@@H](CC(=O)O)C1=O [compound 1441] ({CH2CO}-[Phe(3-Me)]WD[NHexGly]Y[Ahp(2)]NR[NMeNle][Ahp(2)]PVDCG-OH; thioether N-14)
- IC50 [3]: 10.2 nM

SMILES: CCCCCCN1CC(=O)N[C@@H](Cc2ccc(O)cc2)C(=O)N[C@@H](CC(C)C)C(=O)N[C@@H](CC(=O)O)C(=O)N[C@@H](CCCNC(=N)N)C(=O)N(C)[C@@H](CCCC)C(=O)N[C@@H](CCCCC)C(=O)N2CCC[C@H]2C(=O)N[C@@H](C(C)(C)C)C(=O)N[C@@H](CC(N)=O)C(=O)N[C@H](C(=O)NCCOCCOCC(=O)N[C@@H](CC(=O)NCCOCCOCC(=O)NCCCCCCCCCCC(=O)O)C(=O)O)CSCC(=O)N[C@@H](Cc2ccccc2)C(=O)N[C@@H](Cc2cccc(C)c2)C(=O)N[C@@H](CC(=O)O)C1=O [Example 2212] ({CH2CO}-F[Phe(3-Me)]D[NHexGly]YLDR[NMeNle][Ahp(2)]P[Tle]NC[AEEA][βAsp][AEEA][Aun]-OH; thioether N-14)
- IC50 (read-out: HC CBA mVISTA IC50): 34.9 nM

SMILES: CCCCCCN1CC(=O)N[C@@H](Cc2ccc(O)cc2)C(=O)N[C@@H](CCCC)C(=O)N[C@@H](CC(N)=O)C(=O)N[C@@H](CCCNC(=N)N)C(=O)N(C)[C@@H](CC(C)C)C(=O)N[C@@H](CCCCC)C(=O)N2CCC[C@H]2C(=O)N[C@@H](C(C)C)C(=O)N[C@@H](CC(=O)O)C(=O)N[C@H](C(=O)NCC(=O)O)CSCC(=O)N[C@@H](Cc2ccc3ccccc3c2)C(=O)N[C@@H](Cc2c[nH]c3ccccc23)C(=O)N[C@@H](CC(=O)O)C1=O [compound 1239] ({CH2CO}-[2Nal]WD[NHexGly]Y[Nle]NR[NMeL][Ahp(2)]PVDCG-OH; thioether N-14)
- IC50 (cell-based binding high-content assay, mVISTA, the 15th table, read-out: HC CBA mVISTA IC50): 3.2 nM

SMILES: CCCCCCN1CC(=O)N[C@@H](Cc2ccc(O)cc2)C(=O)N[C@@H](CCCC)C(=O)N[C@@H](CC(=O)O)C(=O)N[C@@H](CCCN)C(=O)N(C)[C@@H](CCCC)C(=O)N[C@@H](CCCCC)C(=O)N2CCC[C@H]2C(=O)N[C@@H](C(C)C)C(=O)N[C@@H](CC(=O)O)C(=O)N[C@H](C(=O)NC(CO)C(N)=O)CSCC(=O)N[C@@H](Cc2ccccc2)C(=O)N[C@@H](Cc2cccc(C)c2)C(=O)N[C@@H](CC(=O)O)C1=O (stereo partly shown) [compound 1348] ({CH2CO}-F[Phe(3-Me)]D[NHexGly]Y[Nle]D[Orn][NMeNle][Ahp(2)]PVDC[ξS]-NH2; thioether N-14)
- IC50 (read-out: HC CBA mVISTA IC50): 23.2 nM

SMILES: CCCCCCN1CC(=O)N[C@@H](Cc2ccc(O)cc2)C(=O)N[C@@H](CCCC)C(=O)N[C@@H](CC(N)=O)C(=O)N[C@@H](CCCNC(=N)N)C(=O)N(C)[C@@H](CCCC)C(=O)N[C@@H](CCCCC)C(=O)N2CCC[C@H]2C(=O)N[C@@H](C(C)(C)C)C(=O)N[C@@H](CO)C(=O)N[C@H](C(=O)N[C@@H](CC(=O)NCCOCCOCC(=O)N[C@@H](CC(=O)O)C(=O)NCCOCCOCC(=O)NCCCCCCCCCCC(=O)O)C(=O)O)CSCC(=O)N[C@@H](Cc2ccccc2)C(=O)N[C@@H](Cc2ccc(O)cc2)C(=O)N[C@@H](CC(=O)O)C1=O [compound 2021] ({CH2CO}-FYD[NHexGly]Y[Nle]NR[NMeNle][Ahp(2)]P[Tle]SC[βAsp][AEEA]D[AEEA][Aun]-OH; thioether N-14)
- IC50 [1]: 19.5 nM

SMILES: CCCCCCN1CC(=O)N[C@@H](Cc2ccc(O)cc2)C(=O)N[C@@H](CCCC)C(=O)NCC(=O)N[C@@H](CCCNC(=N)N)C(=O)N[C@@H](CC(C)C)C(=O)N[C@@H](CCCCC)C(=O)N2CCC[C@H]2C(=O)N[C@@H](C(C)C)C(=O)N[C@@H](CC(=O)O)C(=O)N[C@H](C(=O)N[C@@H](CO)C(=O)O)CSCC(=O)N[C@@H](Cc2cccc(C)c2)C(=O)N[C@@H](Cc2c[nH]c3ccccc23)C(=O)N[C@@H](CC(=O)O)C1=O [compound 1425] ({CH2CO}-[Phe(3-Me)]WD[NHexGly]Y[Nle]GRL[Ahp(2)]PVDCS-OH; thioether N-14)
- IC50 [3]: 13.4 nM

SMILES: CCCCCCN1CC(=O)N[C@@H](Cc2ccc(O)cc2)C(=O)N[C@@H](CCCC)C(=O)N[C@@H](CC(=O)O)C(=O)N[C@@H](CCCN)C(=O)N[C@@H](CC(C)C)C(=O)N[C@@H](CCCCC)C(=O)N2CCC[C@H]2C(=O)N[C@@H](C(C)C)C(=O)N[C@@H](CC(=O)O)C(=O)N[C@H](C(=O)N[C@@H](CO)C(N)=O)CSCC(=O)N[C@@H](Cc2ccc3ccccc3c2)C(=O)N[C@@H](Cc2ccc(O)cc2)C(=O)N[C@@H](CC(=O)O)C1=O [Ex 1319] ({CH2CO}-[2Nal]YD[NHexGly]Y[Nle]D[Orn]L[Ahp(2)]PVDCS-NH2; thioether N-14)
- IC50 [2]: 13.7 nM

SMILES: CCCCCCN1CC(=O)N[C@@H](Cc2ccc(O)cc2)C(=O)N[C@@H](CC(C)C)C(=O)N[C@@H](CC(N)=O)C(=O)N[C@@H](CCCN)C(=O)N(C)[C@@H](CC(C)C)C(=O)N[C@@H](CCCCC)C(=O)N2CCC[C@H]2C(=O)N[C@@H](C(C)(C)C)C(=O)N[C@@H](CO)C(=O)N[C@H](C(=O)N[C@@H](CCC(=O)NCCCCCCCCCCC(=O)O)C(=O)O)CSCC(=O)N[C@@H](Cc2ccccc2)C(=O)N[C@@H](Cc2ccc(O)cc2)C(=O)N[C@@H](CC(=O)O)C1=O [Example 2138] ({CH2CO}-FYD[NHexGly]YLN[Orn][NMeL][Ahp(2)]P[Tle]SC[γGlu][Aun]-OH; thioether N-14)
- IC50 (read-out: HC CBA mVISTA IC50): 33 nM

SMILES: CCCCCCN1CC(=O)N[C@@H](Cc2ccc(O)cc2)C(=O)N[C@@H](CCCCC)C(=O)N[C@@H](CC(N)=O)C(=O)N[C@@H](CCCNC(=N)N)C(=O)N[C@@H](CC(C)C)C(=O)N[C@@H](CCCCC)C(=O)N2CCC[C@H]2C(=O)N[C@@H](C(C)C)C(=O)N[C@@H](CO)C(=O)N[C@H](C(=O)N[C@@H](CCC(=O)NCCCCCCCCCCC(=O)O)C(=O)O)CSCC(=O)N[C@@H](Cc2ccccc2)C(=O)N[C@@H](Cc2ccc(O)cc2)C(=O)N[C@@H](CC(=O)O)C1=O [Example 2340] ({CH2CO}-FYD[NHexGly]Y[Ahp(2)]NRL[Ahp(2)]PVSC[γGlu][Aun]-OH; thioether N-14)
- IC50 (read-out: HC CBA mVISTA IC50): 19 nM
